# Measurements reported in ChEMBL document CHEMBL5393444, “Sulfonamide derivatives as ctps1 inhibitors” (2022).
# Species: Homo sapiens
# Assay: Selectivity ratio of IC50 for human CTPS2 to IC50 for human CTPS1 by RapidFire/MS analysis
row,Compound,Ratio IC50
1,CCOc1cncc(-c2ccc(NC(=O)C(C)(C)c3nc(NS(=O)(=O)C4CC4)ncc3C)cc2)n1,2
2,CC(C)(NC(=O)c1ccc(-c2cncc(C(F)(F)F)n2)cc1)c1cncc(NS(=O)(=O)C2CC2)n1,2
3,CCOc1cncc(-c2ccc(NC(=O)C(F)(CC)c3cncc(NS(=O)(=O)C4CC4)n3)nc2)n1 (stereo in doubt; form 3),2
4,CCOc1cncc(-c2ccc(NC(=O)C(C)(OC)c3cncc(NS(=O)(=O)C4CC4)n3)nc2)n1 (stereo in doubt; form 2),30
5,CCOc1cncc(-c2ccc(NC(=O)C3(c4ccnc(NS(=O)(=O)C5CC5)n4)CCC(O)CC3)nc2)n1 (stereo in doubt) [listing 1 of 2 here],> 60
6,CCOc1cncc(-c2ccc(NC(=O)C(F)(CC)c3ccnc(NS(=O)(=O)C4CC4)n3)nc2)n1 (stereo in doubt; form 1) [listing 1 of 2 here],30
7,CCOc1cncc(-c2ccc(NC(=O)C(F)(CC)c3cncc(NS(=O)(=O)C4CC4)n3)nc2)n1 (stereo in doubt; form 2),> 60
8,CC(C)c1cncc(-c2ccc(NC(=O)C(C)(C)c3ccnc(NS(=O)(=O)C4CC4)n3)cc2)n1,30
9,CCC(C(=O)Nc1ccc(-c2cncc(Cl)c2)cc1)c1ccnc(NS(=O)(=O)C2CC2)n1 (configuration not stated),2
10,CCOc1cncc(-c2ccc(NC(=O)C(C)(C)c3ccnc(NS(=O)(=O)CC)n3)cc2)n1,30
11,O=C(Cc1ccnc(NS(=O)(=O)C2CC2)n1)Nc1ccc(-c2cccnc2)cc1,30
12,CCOc1cncc(-c2ccc(NC(=O)C3(c4ccnc(NS(=O)(=O)N(C)C)n4)CCOCC3)nc2)n1,> 60
13,"CCOc1cncc(-c2ccc(NC(=O)C3(c4ccnc(NS(=O)(=O)C5CC5)n4)CCC(O)CC3)nc2)n1 (single isomer, unassigned)",2
14,CCOc1cncc(-c2ccc(NC(=O)C(C)(OC)c3cncc(NS(=O)(=O)C4CC4)n3)nc2)n1 (stereo in doubt; form 1),> 60
15,CC(C)(C(=O)Nc1ccc(-c2cccnc2)cc1)c1ccnc(NS(=O)(=O)C2CC2)n1,2
16,CCOc1cncc(-c2ccc(NC(=O)C3(c4ccnc(NS(=O)(=O)C5CC5)n4)CCC(N(C)C)CC3)nc2)n1 (stereo in doubt; form 2),> 60
17,CCOc1cncc(-c2ccc(NC(=O)C(F)(CC)c3ccnc(NS(=O)(=O)C4CC4)n3)nc2)n1 (stereo in doubt; form 2),2
18,CCC(C(=O)Nc1ccc(-c2cncc(C(F)(F)F)n2)cc1)c1ccnc(NS(=O)(=O)C2CC2)n1 (configuration not stated),2
19,CCOc1cncc(-c2ccc(NC(=O)C(F)(CC)c3cncc(NS(=O)(=O)C4CC4)n3)nc2)n1 (stereo in doubt; form 1) [listing 1 of 2 here],30

# Biological target: T1, CTP synthase 1 (Homo sapiens, UniProt P17812)
# T1 sequence (P17812 whole entry): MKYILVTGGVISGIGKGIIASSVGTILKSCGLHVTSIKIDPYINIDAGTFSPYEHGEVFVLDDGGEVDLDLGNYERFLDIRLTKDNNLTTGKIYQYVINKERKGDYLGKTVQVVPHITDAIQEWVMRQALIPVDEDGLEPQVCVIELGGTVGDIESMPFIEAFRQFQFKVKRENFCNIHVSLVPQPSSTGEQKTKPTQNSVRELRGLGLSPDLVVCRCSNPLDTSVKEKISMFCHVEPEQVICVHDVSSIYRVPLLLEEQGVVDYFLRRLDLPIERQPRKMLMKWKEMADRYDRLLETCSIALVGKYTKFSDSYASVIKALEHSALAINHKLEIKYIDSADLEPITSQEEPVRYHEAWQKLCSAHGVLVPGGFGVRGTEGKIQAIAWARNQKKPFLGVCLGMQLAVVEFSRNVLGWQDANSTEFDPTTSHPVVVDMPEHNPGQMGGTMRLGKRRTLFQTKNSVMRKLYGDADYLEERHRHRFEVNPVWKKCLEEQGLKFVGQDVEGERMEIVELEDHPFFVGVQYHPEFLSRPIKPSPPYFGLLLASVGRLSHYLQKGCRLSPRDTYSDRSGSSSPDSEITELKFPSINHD
# Assay: Inhibition of C-terminal FLAG-His8-tagged full length human CTPS1 preincubated for 10 mins followed by substrate addition by ADP-Glo assay
row,Compound,IC50
1,CCC(F)(C(=O)Nc1ccc(-c2cncc(C3CC3)n2)cn1)c1ccnc(NS(=O)(=O)C2CC2)n1 (configuration not stated),≤ 100 nM
2,CCOc1cncc(-c2cnc(NC(=O)C(C)(C)c3ccnc(NS(=O)(=O)C4CC4)n3)c(F)c2)n1,≤ 100 nM
3,Cc1ncc(-c2ccc(NC(=O)C(C)(C)c3ccnc(NS(C)(=O)=O)n3)c(C)c2)cn1,≥ 1000 nM
4,CCOc1cncc(-c2ccc(NC(=O)C3(c4ccnc(NS(=O)(=O)C5CC5)n4)CCC(N(C)C)CC3)nc2)n1 (stereo in doubt; form 1),≤ 100 nM
5,CCOc1cncc(-c2ccc(NC(=O)C3(c4ccnc(NS(=O)(=O)C5CC5)n4)CCC(O)CC3)nc2)n1 (stereo in doubt) [listing 2 of 2 here],≤ 100 nM
6,CCOc1cncc(-c2ccc(NC(=O)C(CC)c3nccc(NS(=O)(=O)C4CC4)n3)nc2)n1 (configuration not stated),≤ 100 nM
7,COc1cncc(-c2ccc(NC(=O)C(C)(C)c3ccnc(NS(=O)(=O)C4CC4)n3)cc2)n1,≤ 100 nM
8,CCOc1cncc(-c2ccc(C(=O)NC(CC)c3cncc(NS(=O)(=O)C4CC4)n3)c(F)c2)n1 (configuration not stated),≤ 100 nM
9,CCOc1cncc(-c2ccc(NC(=O)C(C)(C)c3ccnc(NS(=O)(=O)C4CC4)n3)cn2)n1,≤ 100 nM
10,CC(C)(C(=O)Nc1ccc(-c2cncc(C(F)(F)F)n2)cc1F)c1ccnc(NS(=O)(=O)C2CC2)n1,≤ 100 nM
11,CCC(NC(=O)c1ccc(-c2cncc(OC(C)C)n2)cc1)c1ccnc(NS(=O)(=O)C2CC2)n1 (configuration not stated),≤ 100 nM
12,COc1cncc(-c2ccc(NC(=O)Cc3ccnc(NS(=O)(=O)C4CC4)n3)cc2)n1,≤ 100 nM
13,CCC(C(=O)Nc1ccc(-c2cncc(OC(C)C)n2)cc1)c1ccnc(NS(=O)(=O)C2CC2)n1 (configuration not stated),≤ 100 nM
14,CCC(C(=O)Nc1ccc(-c2cncc(Cl)c2)cn1)c1ccnc(NS(=O)(=O)C2CC2)n1 (configuration not stated),≤ 100 nM
15,CCOc1cncc(-c2ccc(NC(=O)C(C)(C)c3ccnc(NS(=O)(=O)C4CC4)n3)c(OC(F)(F)F)c2)n1,≤ 100 nM
16,CCOc1cncc(-c2ccc(NC(=O)C(F)(c3ccnc(NS(=O)(=O)C4CC4)n3)C(C)C)nc2)n1 (configuration not stated),≤ 100 nM
17,CCS(=O)(=O)Nc1nccc(C(C)(C)C(=O)Nc2ccc(-c3cncc(OC)n3)cc2F)n1,≤ 1000 nM
18,CC(C)(C(=O)Nc1ccc(-c2cncc(OC3CC3)n2)cn1)c1ccnc(NS(=O)(=O)C2CC2)n1,≤ 100 nM
19,CCOc1cncc(-c2ccc(NC(=O)C3(c4cccc(NS(=O)(=O)C5CC5)n4)CCOCC3)nc2)n1,≤ 100 nM
20,O=C(Cc1ccnc(NS(=O)(=O)C2CC2)n1)Nc1ccc(-c2cncc(OCC(F)(F)F)n2)cc1,≤ 100 nM
21,CCC(C(=O)Nc1ccc(-c2cncc(OC(C)C)n2)cc1F)c1ccnc(NS(=O)(=O)C2CC2)n1 (configuration not stated),≤ 100 nM
22,CCOc1cncc(-c2ccc(NC(=O)C(F)(CC)c3cncc(NS(=O)(=O)C4CC4)n3)nc2)n1 (stereo in doubt; form 1) [listing 2 of 2 here],≤ 100 nM
23,O=C(Cc1ccnc(NS(=O)(=O)C2CC2)n1)Nc1ccc(-c2cncc(C(F)(F)F)n2)cc1,≤ 100 nM
24,CC(C)(C(=O)Nc1ccc(-c2cncc(C(F)(F)F)n2)cn1)c1ccnc(NS(=O)(=O)C2CC2)n1,≤ 100 nM
25,CC(C)Oc1cncc(-c2ccc(NC(=O)C(C)(C)c3ccnc(NS(=O)(=O)C4CC4)n3)cc2)n1,≤ 100 nM
26,CC(C)(C(=O)Nc1ccc(-c2cncc(OC(F)F)c2)cc1)c1ccnc(NS(=O)(=O)C2CC2)n1,≤ 100 nM
27,CC(C)(C(=O)Nc1ccc(-c2cncc(C(F)(F)F)n2)cc1)c1ccnc(NS(=O)(=O)C2CC2)n1,≤ 100 nM

row,Compound,IC50
1,CCOc1cncc(-c2ccc(NC(=O)C(CC)(CC)c3ccnc(NS(=O)(=O)C4CC4)n3)cc2)n1,≤ 100 nM
2,CCC(C(=O)Nc1ccc(-c2cncc(C(F)(F)F)n2)cc1F)c1ccnc(NS(=O)(=O)C2CC2)n1 (configuration not stated),≤ 100 nM
3,CCC(C(=O)Nc1ccc(-c2cncc(OC)n2)cc1)c1ccnc(NS(=O)(=O)C2CC2)n1 (configuration not stated),≤ 100 nM
4,CCOc1cncc(-c2ccc(NC(=O)C(C)(OC)c3cncc(NS(=O)(=O)C4CC4)n3)nc2)n1 (configuration not stated),≤ 100 nM
5,CCOc1cncc(-c2ccc(NC(=O)C3(c4ccnc(NS(=O)(=O)C5CC5)n4)CCC(OC)CC3)nc2)n1 (configuration not stated),≤ 100 nM
6,CCOc1cncc(-c2ccc(NC(=O)C(c3ccnc(NS(=O)(=O)C4CC4)n3)C(C)C)c(F)c2)n1 (configuration not stated),≤ 100 nM
7,CCOc1cncc(-c2ccc(NC(=O)C(C)(C)c3ccnc(NS(C)(=O)=O)n3)cc2)n1,≤ 100 nM
8,COc1cncc(-c2ccc(NC(=O)Cc3cccc(NS(=O)(=O)C4CC4)n3)cc2)n1,≤ 100 nM
9,CCOc1cncc(-c2cnc(NC(=O)C(CCOC)c3ccnc(NS(=O)(=O)C4CC4)n3)c(F)c2)n1 (configuration not stated),≤ 100 nM
10,CCOc1cncc(-c2ccc(NC(=O)C(c3ccnc(NS(=O)(=O)C4CC4)n3)C(C)C)nc2)n1 (configuration not stated),≤ 100 nM
11,CCOc1cncc(-c2ccc(NC(=O)C3(c4ccnc(NS(=O)(=O)C5CC5)n4)CCOCC3)cc2)n1,≤ 100 nM
12,CCC(C(=O)Nc1ccc(-c2cncc(OCC(F)(F)F)n2)cn1)c1ccnc(NS(=O)(=O)C2CC2)n1 (configuration not stated),≤ 100 nM
13,CCOc1cncc(-c2ccc(NC(=O)C(OC)c3cncc(NS(=O)(=O)C4CC4)n3)nc2)n1 (configuration not stated),≤ 100 nM
14,CCOc1cncc(-c2ccc(NC(=O)C3(c4ccnc(NS(=O)(=O)C5(C#N)CC5)n4)CCOCC3)nc2)n1,≤ 100 nM
15,CCC(C(=O)Nc1ccc(-c2cncc(C3CC3)n2)cn1)c1ccnc(NS(=O)(=O)C2CC2)n1 (configuration not stated),≤ 100 nM
16,CCOc1cccc(-c2ccc(NC(=O)C(C)(C)c3ccnc(NS(=O)(=O)C4CC4)n3)cc2)c1,10000 nM
17,CCOc1cncc(-c2ccc(NC(=O)C3(c4ccnc(NS(=O)(=O)C5CC5)n4)CC4(C3)OCCO4)nc2)n1,≤ 100 nM
18,O=C(Cc1ccnc(NS(=O)(=O)C2CC2)n1)Nc1ccc(-c2cncc(C(F)(F)F)n2)cc1F,≤ 100 nM
19,CCC(F)(C(=O)Nc1ccc(-c2cncc(Cl)c2)cn1)c1ccnc(NS(=O)(=O)C2CC2)n1 (configuration not stated),≤ 100 nM
20,CCOc1cncc(-c2ccc(NC(=O)C(F)(CC)c3ccnc(NS(=O)(=O)C4CC4)n3)nc2)n1 (stereo in doubt; form 1) [listing 2 of 2 here],≤ 100 nM
21,CCOc1cncc(-c2ccc(NC(=O)C(OC)c3cncc(NS(=O)(=O)C4CC4)n3)cc2)n1 (configuration not stated),≤ 100 nM
22,CCC(C(=O)Nc1ccc(-c2cncc(C3CC3)n2)cc1F)c1ccnc(NS(=O)(=O)C2CC2)n1 (configuration not stated),≤ 100 nM
23,CCOc1cncc(-c2ccc(NC(=O)C(C)(C)c3ccnc(NS(=O)(=O)C4CC4)n3)c(OC)c2)n1,≤ 100 nM
24,CCOc1cncc(-c2cc(F)c(NC(=O)C(C)(C)c3ccnc(NS(=O)(=O)C4CC4)n3)c(F)c2)n1,≤ 100 nM
25,CCOc1cncc(-c2ccc(NC(=O)C(C)(C)c3ccnc(NS(=O)(=O)C4CC4)n3)c(Cl)c2)n1,≤ 100 nM
26,CCOc1cncc(-c2ccc(NC(=O)C(F)(F)c3ccnc(NS(=O)(=O)C4CC4)n3)c(F)c2)n1,≤ 100 nM
